Values quoted from earlier work in patent US20130280331A1, “Depot Compositions with multiple drug release rate controls and uses thereof” (Durect Corporation, priority 2001, published 2013).

reported solubility in water: 7.17 grams in 100 ml of water
Structure (SMILES): CC(=O)OCC(COC(C)=O)OC(C)=O [triacetin]
